Laboratory results taken from publication PMC5698301, “Dual Coating of Liposomes as Encapsulating Matrix of Antimicrobial Peptides: Development and Characterization” (Frontiers in Chemistry, 2017).
Peptide text beside a SMILES is read from it.

Assays:
[1] = test system: S. enteritidis; test: Microtitration assay (critical dilution), activity in AU; type: cell-based, Salmonella enteritidis
Protocol: The second activity test was carried out using the same strain (S. enteritidis) in polystyrene 96-well micro-assay plates (Microtest, Becton–Dickinson Labware, MD, USA) as described by Ennaas et al. ([2016]). Briefly, fractions were added to microplates and diluted 2-folds with LB broth. Then, wells were seeded with ~1 × 10^4 CFU of strain per well using log-phase culture diluted in LB to 0.5–1.0 × 10^6 CFU ml^−1. The plates were incubated for 18 h at 37°C. After incubation, OD at 595 nm was measured using an Infinite® F200 PRO photometer (Tecan US Inc., Durham, NC). Antimicrobial activity results were expressed as arbitrary units per milliliter (AU ml^−1) that calculated as follows:
AU ml^−1 = (1,000/100) × 2 n, where n = number of inhibited wells.

[2] = test system: pepsin; details: in all liposomal formulations; SGF with pepsin 3.2 mg/mL, 2 h, 37 ± 0.5°C, HPLC
Protocol: The dissolution experiment was performed according to Liu et al. ([2012]) with some modifications. Different samples were placed in a simulated gastric fluid for 2 h (SGF: 0.2 g of NaCl dissolved in 0.7 mL of HCl and filled up to 100 ml with distilled water then pepsin was added at a concentration of 3.2 mg/mL). Then, the dissolution was performed in simulated intestinal fluid (SIF: 6.8 g of potassium phosphate monobasic sodium hydroxide with a pH adjusted to 7.4 with 2N sodium hydroxide to a volume of 100 mL and a concentration of 0.2 mg/mL bovine bile extract), the pH was adjusted to 7.4. Pancreatin was added at a concentration of 20 mg/mL (equivalent to a protease activity of 500 U/mL). The dissolution was performed for 4 h at a temperature of 37 ± 0.5°C with stirring at 140 rpm. To perform the experiment 3 ml of the individual suspensions of liposomes was added to 3 mL of gastric fluid and samples of 500 μL of medium are removed at intervals of 1 h for the gastric fluid portion and at 0, 15, 30, 60, 120, 240 min during the intestinal dissolution. The contents MccJ25 samples were determined by HPLC. […] The blank was performed in similar conditions with a solution of non-encapsulated MccJ25.

Row | Compound | Specific activity (AU/mg) ([1]; activity per mg protein (Lowry method)) | Inhibitory activity (AU/ml) ([1]; microtitration assay, S. enteritidis, 2-fold dilutions in LB, 18 h at 37°C, OD 595 nm) | Resistance of MccJ25 to gastric digestion [2]
1 | CC[C@H](C)[C@H](NC(=O)CNC(=O)[C@@H](NC(=O)[C@H](Cc1ccccc1)NC(=O)[C@H](Cc1ccc(O)cc1)NC(=O)[C@@H]1CCC(=O)NCC(=O)NCC(=O)N[C@@H](C)C(=O)NCC(=O)N[C@@H](Cc2c[nH]cn2)C(=O)N[C@@H](C(C)C)C(=O)N2CCC[C@H]2C(=O)N1)C(C)C)C(=O)NCC(=O)N[C@H](C(=O)N1CCC[C@H]1C(=O)N[C@H](C(=O)N[C@@H](CO)C(=O)N[C@@H](Cc1ccccc1)C(=O)N[C@@H](Cc1ccc(O)cc1)C(=O)NCC(=O)O)[C@@H](C)CC)[C@@H](C)O [MccJ25, microcin J25] (HELM PEPTIDE1{G.G.A.G.H.V.P.E.Y.F.V.G.I.G.T.P.I.S.F.Y.G}$PEPTIDE1,PEPTIDE1,1:R1-8:R3$$$V2.0; C-terminus assumed; bridges inferred) | 181,352 AU/mg | 524,288 AU/ml | 
2 | CC[C@H](C)[C@H](NC(=O)CNC(=O)[C@@H](NC(=O)[C@H](Cc1ccccc1)NC(=O)[C@H](Cc1ccc(O)cc1)NC(=O)[C@@H]1CCC(=O)NCC(=O)NCC(=O)N[C@@H](C)C(=O)NCC(=O)N[C@@H](Cc2cnc[nH]2)C(=O)N[C@@H](C(C)C)C(=O)N2CCC[C@H]2C(=O)N1)C(C)C)C(=O)NCC(=O)N[C@H](C(=O)N1CCC[C@H]1C(=O)N[C@H](C(=O)N[C@@H](CO)C(=O)N[C@@H](Cc1ccccc1)C(=O)N[C@@H](Cc1ccc(O)cc1)C(=O)NCC(=O)O)[C@@H](C)CC)[C@@H](C)O [MccJ25, microcin J25] (HELM PEPTIDE1{G.G.A.G.H.V.P.E.Y.F.V.G.I.G.T.P.I.S.F.Y.G}$PEPTIDE1,PEPTIDE1,1:R1-8:R3$$$V2.0) |  |  | resisted gastric digestion
